Key:
[1] = system: SK-BR-3 cells; assay: Determination of cell growth inhibition (crystal violet staining method); assay type: cell-based; conditions: Homo sapiens; breast cancer cells SK-BR-3, 72 hours culture with test substance
Protocol: Cell growth was assayed by a crystal violet staining method. SK-BR-3 cells (HTB-30) purchased from American Type Culture Collection were inoculated at a concentration of 5,000 cells/well to a 96-well plate (#353075, BD Biosciences). After culture at 37° C. for 24 hours in a 5% CO2 incubator, each test substance was added thereto, and the cells were further cultured for 72 hours. A 25% glutaraldehyde solution (#17025-25, Nacalai Tesque, Inc.) was added thereto at a concentration of 20 μL/well per 200 μL of the medium, and the plate was incubated at room temperature for 20 minutes to fix the cells. The plate was washed with water and dried. Then, a solution containing 0.05% crystal violet (#038-17792, Wako Pure Chemical Industries, Ltd.) and 20% methanol was added thereto at a concentration of 100 μL/well, and the plate was incubated at room temperature for 20 minutes to stain the cells. The plate was washed with water and dried. A mixed solution of 0.05 M NaH2PO4 and ethanol (mixed in equal amounts) was added thereto at a concentration of 100 μL/well. Absorbance was measured at 540 nm using a microplate reader (MTP-450, Corona Electric Co., Ltd.) and used as an index for the number of cells per well. Percent inhibition (%) of cell growth by each compound of the present invention was determined according to the formula shown below with the absorbance of no drug addition group as a control. […] Percent inhibition (%)=(C−T)/C×100, wherein T: Absorbance of well with test substance addition C: Absorbance of well without test substance addition.

[2] = target: human HSP90 alpha protein (N-terminal, amino acids 2 to 236) (Homo sapiens (Human), UniProt P07900); assay: Determination of HSP90-binding activity (AlphaScreen competitive assay with biotinylated geldanamycin); conditions: inhibition of binding of biotinylated geldanamycin to purified HSP90 N-terminal protein, read-out: HSP-binding activity IC50
Protocol: First, a purified HSP90 solution was prepared as follows: a human HSP90 alpha gene (NCBI Reference Sequence accession no. NM-005348) region corresponding to amino acids 2 to 236 of human HSP90 alpha protein (NCBI Reference Sequence accession no. NP-005339; full length: 732 amino acids) was inserted to pET-19b (Novagen; Merck KGaA) to construct a plasmid pET-HS[…] for expression of the HSP90 N-terminal protein having a His-tag at the N-terminus. E. coli (BL21(DE3), Stratagene Corp.) was transformed with pET-HS[…] and then cultured at 37° C. for 4 hours in the presence of 0.5 mM isopropyl-beta-D-thiogalactopyranoside (Sigma-Aldrich Corp.). The collected E. coli was suspended in a lysis buffer (50 mM Tris-HCl (pH 7.5), 200 mM NaCl) and sonicated. The sonicated cell solution was centrifuged (40,000×g, 20 minutes), and the supernatant was used as a crude extract. This crude extract was fractionated using Ni Sepharose High Performance (GE Healthcare Japan Corp.) chromatography and HiLoad 26/60 Superdex 75 pg (GE Healthcare Japan Corp.). Then, a fraction of HSP90 protein concentrates was prepared in a solution containing 50 mM Tris-HCl (pH 7.5) and 20% glycerol as a purified HSP90 solution. The purified HSP90 solution was divided and stored at -80° C. until use. HSP90-binding activity was determined by an AlphaScreen competitive assay system. […] After reaction at room temperature for 2 hours, biotinylated geldanamycin was added thereto at a concentration of 40 nM/well and further reacted for 1 hour. Detection mix (20 mM HEPES-KOH (pH 7.5), 0.5% BSA, 0.04 mg/mL Nickel Chelate Acceptor beads, 0.04 mg/mL Streptavidin-coated Donor beads) (#6760619C, PerkinElmer, Inc.) was added to each well in an amount equal to the amount of the reaction solution and reacted at room temperature for 1 hour in the dark. Then, fluorescence intensity was measured using Multilabel Plate Reader EnVision (PerkinElmer, Inc.). Percent inhibition (%) of the binding of biotinylated geldanamycin by each compound of the present invention was determined according to the formula shown below with the fluorescence signal of no test substance addition group as a control. […] Percent inhibition (%)=(C-T)/C×100, wherein T: Signal of well with test substance addition C: Signal of well without test substance addition.

Row | SMILES | IC50 [1] [µM] | IC50 [2] [µM]
1 | Cn1cc(-c2cn(-c3cccc4c(-c5ccc(C(N)=O)c(NCCc6ccccn6)c5)nccc34)cn2)cn1 [Example 60, 4-(5-(4-(1-Methyl-1H-pyrazol-4-yl)-1H-imidazol-1-yl)isoquinolin-1-yl)-2-(2-(pyridin-2-yl)ethylamino)benzamide] | 0.15 | 0.17
2 | COCCNc1cc(-c2nccc3c(-n4cnc(-c5cnn(C)c5)c4)cccc23)ccc1C(N)=O [Example 62, 2-(2-Methoxyethylamino)-4-(5-(4-(1-methyl-1H-pyrazol-4-yl)-1H-imidazol-1-yl)isoquinolin-1-yl)benzamide] | 0.26 | 0.21
3 | Cc1cc2c(-n3cnc(-c4cnn(C)c4)c3)cccc2c(-c2ccc(C(N)=O)c(N)c2)n1 [Example 71, 2-Amino-4-(3-methyl-5-(4-(1-methyl-1H-pyrazol-4-yl)-1H-imidazol-1-yl)isoquinolin-1-yl)benzamide] | 0.21 | 0.17
4 | CCNc1cc(-c2nccc3c(-n4cnc(-c5cnn(C)c5)c4)ccnc23)ccc1C(N)=O [Example 72, 2-Ethylamino-4-(4-(4-(1-methyl-1H-pyrazol-4-yl)-1H-imidazol-1-yl)1,7-naphthyridin-8-yl)benzamide] | 1.74 | 0.74
5 | Cn1cc(-c2cn(-c3cccc4c(-c5ccc(C(N)=O)cc5N)cc(C(F)(F)F)nc34)cn2)cn1 [Example 73, 3-Amino-4-(8-(4-(1-methyl-1H-pyrazol-4-yl)-1H-imidazol-1-yl)-2-(trifluoromethyl)quinolin-4-yl)benzamide] | 0.07 | 0.19
6 | Cc1cc2c(-n3cnc(-c4cnn(C)c4)c3)cccc2c(-c2ccc(C(N)=O)cc2N)n1 [Example 74, 3-Amino-4-(3-methyl-5-(4-(1-methyl-1H-pyrazol-4-yl)-1H-imidazol-1-yl)isoquinolin-1-yl)benzamide] | 1.12 | 0.44
7 | Cn1cc(-c2cn(-c3cccc4c(-c5ccc(C(N)=O)cc5N)nc(C(F)(F)F)nc34)cn2)cn1 [Example 75, 3-Amino-4-(8-(4-(1-methyl-1H-pyrazol-4-yl)-1H-imidazol-1-yl)-2-(trifluoromethyl)quinazolin-4-yl)benzamide] | 0.33 | 0.21
8 | Cn1cc(-c2cn(-c3cccc4c(-c5ccc(C(N)=O)c(Cl)c5)cc(C(F)(F)F)nc34)cn2)cn1 [Example 81, 2-Chloro-4-(8-(4-(1-methyl-1H-pyrazol-4-yl)-1H-imidazol-1-yl)-2-(trifluoromethyl)quinolin-4-yl)benzamide] | 0.76 | 0.87
9 | Cn1cc(-c2cn(-c3cccc4c(-c5ccc(C(N)=O)nc5)cc(C(F)(F)F)nc34)cn2)cn1 [Example 83, 5-(8-(4-(1-Methyl-1H-pyrazol-4-yl)-1H-imidazol-1-yl)-2-(trifluoromethyl)quinolin-4-yl)picolinamide] | 0.1 | 0.21
10 | Cc1cc(C(N)=O)ccc1-c1cc(C(F)(F)F)nc2c(-n3cnc(-c4cnn(C)c4)c3)cccc12 [Example 84, 3-Methyl-4-(8-(4-(1-methyl-1H-pyrazol-4-yl)-1H-imidazol-1-yl)-2-(trifluoromethyl)quinolin-4-yl)benzamide] | 0.11 | 0.22

Further compounds by falling IC50 [1], results first:

Row | IC50 [1] [µM] | IC50 [2] [µM] | SMILES
11 | 0.07 | 0.19 | CC(C)Nc1cc(-c2nccc3c(-n4cnc(-c5cnn(C)c5)c4)cccc23)ccc1C(N)=O [Example 61, 2-(Isopropylamino)-4-(5-(4-(1-methyl-1H-pyrazol-4-yl)-1H-imidazol-1-yl)isoquinolin-1-yl)benzamide]
12 | 0.06 | 0.21 | Cn1cc(-c2cn(-c3cccc4c(-c5ccc(C(N)=O)c(F)c5)cc(C(F)(F)F)nc34)cn2)cn1 [Example 70, 2-Fluoro-4-(8-(4-(1-methyl-1H-pyrazol-4-yl)-1H-imidazol-1-yl)-2-(trifluoromethyl)quinolin-4-yl)benzamide]
13 | 0.04 | 0.2 | CC(C)(C)Nc1cc(-c2cc(C(F)(F)F)nc3c(-n4cnc(-c5cccnc5)c4)cccc23)ccc1C(N)=O [Example 76, 2-(Tert-butylamino)-4-(8-(4-(pyridin-3-yl)-1H-imidazol-1-yl)-2-(trifluoromethyl)quinolin-4-yl)benzamide]
14 | 0.03 | 0.18 | NC(=O)c1ccc(-c2cc(C(F)(F)F)nc3c(-n4cnc(-c5cccnc5)c4)cccc23)cc1N [Example 78, 2-Amino-4-(8-(4-(pyridin-3-yl)-1H-imidazol-1-yl)-2-(trifluoromethyl)quinolin-4-yl)benzamide]
15 | 0.02 | 0.15 | CCNc1cc(-c2nc(C)cc3c(-n4cnc(-c5cnn(C)c5)c4)cccc23)ccc1C(N)=O [Example 66, 2-(Ethylamino)-4-(3-methyl-5-(4-(1-methyl-1H-pyrazol-4-yl)-1H-imidazol-1-yl)isoquinolin-1-yl)benzamide]
16 | 0.02 | 0.21 | Cc1cc2c(-n3cnc(-c4cnn(C)c4)c3)cccc2c(-c2ccc(C(N)=O)c(NC(C)C)c2)n1 [Example 67, 2-(Isopropylamino)-4-(3-methyl-5-(4-(1-methyl-1H-pyrazol-4-yl)-1H-imidazol-1-yl)isoquinolin-1-yl)benzamide]
17 | 0.02 | 0.15 | Cn1cc(-c2cn(-c3cccc4c(-c5ccc(C(N)=O)c(N)c5)cc(C(F)(F)F)nc34)cn2)cn1 [Example 69, 2-Amino-4-(8-(4-(1-methyl-1H-pyrazol-4-yl)-1H-imidazol-1-yl)-2-(trifluoromethyl)quinolin-4-yl)benzamide]
18 | 0.02 | 0.32 | Cn1cc(-c2cn(-c3cccc4c(-c5ccc(C(N)=O)c(NC(C)(C)C)c5)nc(C(F)(F)F)nc34)cn2)cn1 [Example 79, 2-(Tert-butylamino)-4-(8-(4-(1-methyl-1H-pyrazol-4-yl)-1H-imidazol-1-yl)-2-(trifluoromethyl)quinazolin-4-yl)benzamide]
19 | 0.02 | 0.14 | CCNc1cc(-c2nc(C(F)(F)F)nc3c(-n4cnc(-c5cnn(C)c5)c4)cccc23)ccc1C(N)=O [Example 80, 2-(Ethylamino)-4-(8-(4-(1-methyl-1H-pyrazol-4-yl)-1H-imidazol-1-yl)-2-(trifluoromethyl)quinazolin-4-yl)benzamide]
20 | 0.01 | 0.17 | CC(C)Nc1cc(-c2cc(C(F)(F)F)nc3c(-n4cnc(-c5cnn(C)c5)c4)cccc23)ccc1C(N)=O [Example 64]
21 | 0.01 | 0.19 | Cc1cc2c(-n3cnc(-c4cnn(C)c4)c3)cccc2c(-c2ccc(C(N)=O)c(NCC3CC3)c2)n1 [Example 68, 2-(Cyclopropylmethylamino)-4-(3-methyl-5-(4-(1-methyl-1H-pyrazol-4-yl)-1H-imidazol-1-yl)isoquinolin-1-yl)benzamide]
22 | 0.01 | 0.17 | CCNc1cc(-c2cc(C(F)(F)F)nc3c(-n4cnc(-c5cccnc5)c4)cccc23)ccc1C(N)=O [Example 77, 2-(Ethylamino)-4-(8-(4-(pyridin-3-yl)-1H-imidazol-1-yl)-2-(trifluoromethyl)quinolin-4-yl)benzamide]
23 | 0.01 | 0.1 | Cn1cc(-c2cn(-c3cccc4c(-c5ccc(C(N)=O)c(NC(C)(C)C)c5)cc(C(F)(F)F)nc34)cn2)cn1 [Example 86, 2-(Tert-butylamino)-4-(8-(4-(1-methyl-1H-pyrazol-4-yl)-1H-imidazol-1-yl)-2-(trifluoromethyl)quinolin-4-yl)benzamide]

Reference: patent US8912181B2 (Taiho Pharmaceutical Co., Ltd., priority 2011, dated 2014)
